What follows are molecules tested against full-length recombinant human FYN A (Homo sapiens (Human), UniProt P06241) (assay: ADP-Glo Kinase Assay of FYN kinase inhibition). Settings: primary screen, initial compounds.
Format: biochemical
In short: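 GST-tagged full-length FYN A (baculovirus, Sf9) at 3 pg preincubated 30 min RT with compound (10-point 3-fold series from 10 μM) in Tris pH 7.5/MgCl2 buffer. 12-mer tyrosine peptide plus 12.5 pmol ATP added, 90 min RT; ADP measured by ADP-Glo luminescence, IC50 from dose-response.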

full-length recombinant human FYN A, sequence (P06241 whole entry): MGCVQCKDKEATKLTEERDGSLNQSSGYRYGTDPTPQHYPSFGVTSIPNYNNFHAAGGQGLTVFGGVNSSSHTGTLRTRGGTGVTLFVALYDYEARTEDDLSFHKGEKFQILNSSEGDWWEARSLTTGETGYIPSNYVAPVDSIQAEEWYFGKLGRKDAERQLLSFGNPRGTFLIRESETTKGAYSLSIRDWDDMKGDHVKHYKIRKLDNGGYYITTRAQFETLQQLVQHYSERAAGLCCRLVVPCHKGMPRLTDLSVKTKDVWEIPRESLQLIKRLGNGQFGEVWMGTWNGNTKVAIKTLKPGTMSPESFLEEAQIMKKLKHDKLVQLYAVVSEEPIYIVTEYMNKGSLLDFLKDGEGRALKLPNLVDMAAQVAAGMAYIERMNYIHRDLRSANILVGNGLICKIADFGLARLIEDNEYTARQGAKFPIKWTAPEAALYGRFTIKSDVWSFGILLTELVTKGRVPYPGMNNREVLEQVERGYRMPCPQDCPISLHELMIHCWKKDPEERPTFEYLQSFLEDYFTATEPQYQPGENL

IC50 | SMILES
1.03 µM | O=C(NCCO)c1cccc(-c2cn3c(-c4ccc(O)cc4)cnc3cn2)c1 [388_0080_0192, N-(2-hydroxy-ethyl)-3-[3-(4-hydroxyphenyl)imidazo[1,2-a]pyrazin-6-yl]benzamide]
0.641 µM | O=C(NCCO)c1ccc(-c2cn3c(-c4ccc(O)cc4)cnc3cn2)cc1 [388_0080_0328, N-(2-hydroxyethyl)-4-[3-(4-hydroxyphenyl)imidazo[1,2-a]pyrazin-6-yl]benzamide]
6.62 µM | Oc1ccc(-c2cnc3cnc(-c4cnn(Cc5ccccc5)c4)cn23)cc1 [388_0080_7469, 4-[6-(1-benzylpyrazol-4-yl)imidazo[1,2-a]pyrazin-3-yl]phenol]
1.96 µM | O=C(NC1CC1)c1ccc(-c2cn3c(-c4ccc(O)cc4)cnc3cn2)cc1 [388_0080_7489, N-cyclopropyl-4-[3-(4-hydroxyphenyl)imidazo[1,2-a]pyrazin-6-yl]benzamide]
1.93 µM | Nc1ccc(-c2cn3c(-c4ccc(O)cc4)cnc3cn2)cn1 [388_0080_7905, 4-[6-(6-amino-3-pyridyl)imidazo [1,2-a]pyrazin-3-yl]phenol]
2.8 µM | COc1cc(-c2cnc3cnc(-c4cccc(NS(C)(=O)=O)c4)cn23)cc(OC)c1OC [388_0087_6488, N-[3-[3-(3,4,5-trimethoxyphenyl)imidazo[1,2-a]pyrazin-6-yl]phenyl] methane-sulfonamide]
10.5 µM | COc1ccc(-c2cnc3cnc(-c4ccc(O)cc4)cn23)cc1 [388_0280_0080, 4-[3-(4-methoxyphenyl)imidazo[1,2-a]pyrazin-6-yl]phenol]
1.35 µM | COc1cc(-c2cnc3cnc(-c4ccc(NCCN5CCOCC5)nc4)cn23)ccc1O [388_0314_0003, 2-methoxy-4-[6-[6-(2-morpholinoethyl-amino)-3-pyridyl]imidazo [1,2-a]pyrazin-3-yl]phenol]
1.75 µM | COc1cc(-c2cnc3cnc(-c4ccccc4N(C)C)cn23)ccc1O [388_0314_0006, 4-[6-[2-(dimethylamino)phenyl]imidazo [1,2-a]pyrazin-3-yl]-2-methoxy-phenol]
1.13 µM | COc1cc(-c2cnc3cnc(-c4ccc(N5CCN(C)CC5)nc4)cn23)ccc1O [388_0314_0016, 2-methoxy-4-[6-[6-(4-methylpiperazin-1-yl)-3-pyridyl]imidazo [1,2-a]pyrazin-3-yl]phenol]
3.07 µM | COc1cc(-c2cnc3cnc(-c4cccnc4)cn23)ccc1O [388_0314_0071, 2-methoxy-4-[6-(3-pyridyl)imidazo[1,2-a]pyrazin-3-yl]phenol]
1.36 µM | CCOc1cccc(-c2cn3c(-c4ccc(O)c(OC)c4)cnc3cn2)c1 [388_0314_0205, 4-[6-(3-ethoxyphenyl)imidazo[1,2-a]pyrazin-3-yl]-2-methoxy-phenol]
2.54 µM | COc1cc(-c2cnc3cnc(-c4ccccc4Cl)cn23)ccc1O [388_0314_4027, 4-[6-(2-chlorophenyl)imidazo[1,2-a]pyrazin-3-yl]-2-methoxy-phenol]
1.41 µM | COc1cc(-c2cnc3cnc(-c4ccc(N)nc4)cn23)ccc1O [388_0314_7905, 4-[6-(6-amino-3-pyridyl)imidazo [1,2-a]pyrazin-3-yl]-2-methoxy-phenol]
0.746 µM | COc1cc(-c2cnc3cnc(-c4cnn(C)c4)cn23)ccc1O [388_0314_8400, 2-methoxy-4-[6-(1-methylpyrazol-4-yl)imidazo[1,2-a]pyrazin-3-yl]phenol]
4.07 µM | CC(=O)c1cccc(-c2cnc3cnc(-c4ccc(C(=O)NCCN(C)C)cc4)cn23)c1 [388_4145_0327, 4-[3-(3-acetylphenyl)imidazo[1,2-a]pyrazin-6-yl]-N-(2-dimethyl-aminoethyl) benzamide]
6.25 µM | Oc1ccc(-c2cn3c(-c4cccs4)cnc3cn2)cc1 [388_4147_0080, 4-[3-(2-thienyl)imidazo [1,2-a]pyrazin-6-yl]phenol]
8.52 µM | CN(C)CCNC(=O)c1ccc(-c2cn3c(-c4cccs4)cnc3cn2)cc1 [388_4147_0327, N-(2-dimethylamino-ethyl)-4-[3-(2-thienyl)imidazo [1,2-a]pyrazin-6-yl]benzamide]
5.03 µM | c1csc(-c2cn3c(-c4cccs4)cnc3cn2)c1 [388_4147_4147, 3,6-bis(2-thienyl)imidazo [1,2-a]pyrazine]
8.16 µM | Nc1ccc(-c2cn3c(-c4cccs4)cnc3cn2)cn1 [388_4147_7905, 5-[3-(2-thienyl)imidazo [1,2-a]pyrazin-6-yl]pyridin-2-amine]
6.69 µM | COc1cc(OC)cc(-c2cnc3cnc(-c4ccc(C(=O)NCCCN(C)C)cc4)cn23)c1 [388_7492_0180, 4-[3-(3,5-dimethoxyphenyl)imidazo[1,2-a]pyrazin-6-yl]-N-[3-(dimethyl-amino)propyl] benzamide]
14.7 µM | CCCN1CCc2nc(Nc3cc(OC)c(OC)c(OC)c3)ncc2C1 [582_9377_5632, 6-propyl-N-(3,4,5-trimethoxy-phenyl)-7,8-dihydro-5H-pyrido[4,3-d]pyrimidin-2-amine]
4.25 µM | CCNC(=O)N1CCc2nc(Nc3cc(OC)c(OC)c(OC)c3)ncc2C1 [582_9377_5725, N-ethyl-2-(3,4,5-trimethoxy-anilino)-7,8-dihydro-5H-pyrido[4,3-d]pyrimidine-6-carboxamide]
10.1 µM | COc1ccccc1C(=O)N1Cc2cnc(Nc3cccc(N(C)C)c3)nc2C1 [585_9372_5053, [2-[3-(dimethylamino)anilino]-5,7-dihydropyrrolo [3,4-d]pyrimidin-6-yl]-(2-methoxyphenyl) methanone]

SMILES | IC50
CN1CCN(c2ccc(-c3cn4c(-c5ccc(O)cc5)cnc4cn3)cc2)CC1 [388_0080_0218, 4-[6-[4-(4-methyl-piperazin-1-yl)phenyl]imidazo [1,2-a]pyrazin-3-yl]phenol] | 0.678 µM
CN(C)C(=O)c1cccc(-c2cn3c(-c4ccc(O)cc4)cnc3cn2)c1 [388_0080_0349, 3-[3-(4-hydroxyphenyl)imidazo[1,2-a]pyrazin-6-yl]-N,N-dimethyl-benzamide] | 0.974 µM
COc1cc(-c2cnc3cnc(-c4ccc(C(=O)NCCCN(C)C)cc4)cn23)ccc1O [388_0314_0180, N-[3-(dimethylamino)propyl]-4-[3-(4-hydroxy-3-methoxy-phenyl)imidazo [1,2-a]pyrazin-6-yl]benzamide] | 0.606 µM
COc1cc(-c2cnc3cnc(-c4cccc(C(=O)NCCO)c4)cn23)ccc1O [388_0314_0192, N-(2-hydroxyethyl)-3-[3-(4-hydroxy-3-methoxy-phenyl)imidazo [1,2-a]pyrazin-6-yl]benzamide] | 0.896 µM
COc1cc(-c2cnc3cnc(-c4ccc(C(=O)NCCN(C)C)cc4)cn23)ccc1O [388_0314_0327, N-(2-dimethylamino-ethyl)-4-[3-(4-hydroxy-3-methoxy-phenyl)imidazo [1,2-a]pyrazin-6-yl]benzamide] | 0.44 µM

Same assay, conditions: secondary screen, re-synthesized and expanded compounds

SMILES | IC50
c1csc(CNc2ccc3ncc(-c4ccncc4)n3n2)c1 [BF000145941, 3-(4-pyridyl)-N-(2-thienyl-methyl)-[1,2-a]pyridazin-6-amine] | 0.105 µM
c1cc(-c2cnc3ccc(NCc4ccc5c(c4)OCO5)nn23)ccn1 [BF000146108, N-(1,3-benzodioxol-5-ylmethyl)-3-(4-pyridyl)-imidazo[1,2-b]pyridazin-6-amine] | 0.297 µM
COc1ccc(-c2cnc3ccc(NCc4ccc5c(c4)OCO5)nn23)cc1OC [BF000146114, N-(1,3-benzodioxol-5-ylmethyl)-3-[3,4-dimethoxy-phenyl)-imidazo[1,2-b]pyridazin-6-amine] | 6.22 µM
COc1cc(-c2cnc3ccc(NCc4ccc5c(c4)OCO5)nn23)ccc1O [BF000146126, 4-[6-(1,3-benzodioxol-5-ylmethyl-amino)-imidazo[1,2-b]pyridazin-3-yl]-2-methoxy-phenol] | 1.31 µM
Nc1cccc(-c2cnc3ccc(NC4CCOCC4)nn23)c1 [BF000146142, 3-(3-aminophenyl)-N-tetrahydro-pyran-4-yl-imidazo[1,2-b]pyridazin-6-amine] | 1.42 µM
COc1ccc(-c2cnc3ccc(NC4CCOCC4)nn23)cc1OC [BF000146153, 3-(3,4-dimethoxy-phenyl)-N-tetrahydro-pyran-4-yl-imidazo[1,2-b]pyridazin-6-amine] | 0.48 µM
CC(=O)Nc1cccc(-c2cnc3ccc(NC4CCOCC4)nn23)c1 [BF000146155, N-[3-[6-(tetra-hydropyran-4-ylamino)-imidazo[1,2-b]pyridazin-3-yl)phenyl]-acetamide] | 0.397 µM
COc1cccc(-c2cnc3ccc(NC4CCOCC4)nn23)c1 [BF000146183, 3-(3-methoxy-phenyl)-N-tetrahydro-pyran-4-yl-imidazo[1,2-b]pyridazin-6-amine] | 0.829 µM
OCCCNc1ccc2ncc(-c3ccc4c(c3)OCO4)n2n1 [BF000146218, 3-[[3-(1,3-benzodioxol-5-yl)-imidazo[1,2-b]pyridazin-6-yl]amino]-propan-1-ol] | 0.708 µM
COc1ccc(-c2cnc3ccc(NCCCO)nn23)cc1OC [BF000146224, 3-[[3-(3,4-dimethoxy-phenyl)-imidazo[1,2-b]pyridazin-6-yl]-amino]-propan-1-ol] | 0.725 µM
COc1cc(-c2cnc3ccc(NCCCO)nn23)ccc1O [BF000146250, 4-[6-(3-hydroxy-propylamino)-imdazo[1,2-b]pyridazin-3-yl]-2-methoxy-phenol] | 0.206 µM
CC(=O)Nc1cccc(-c2cnc3ccc(N[C@H](CO)C(C)C)nn23)c1 [BF000146300, N-[3-[6-[[(1S)-1-(hydroxy-methyl)-2-methyl-propyl]-amino]-imidazo[1,2-b]pyridazin-3-yl]-phenyl]acetamide] | 0.792 µM
COc1cc(-c2cnc3ccc(N[C@H](CO)C(C)C)nn23)ccc1O [BF000146319, 4-[6-[[(1S)-1-(hydroxy-methyl)-2-methyl-propyl]-amino]-imidazo[1,2-b]pyridazin-3-yl]-2-methoxy-phenol] | 0.443 µM
c1ccc(CNc2ccc3ncc(-c4ccc5c(c4)OCO5)n3n2)nc1 [BF000146330, 3-(1,3-benzodioxol-5-yl)-N-(2-pyridyl-methyl)-imidazo[1,2-b]pyridazin-6-amine] | 0.355 µM

— patent publication US10688093B2, “Methods, compositions, and uses of novel Fyn kinase inhibitors” (priority 2015, dated 2020)
